Reference: patent publication US5229123A, “Antifungal agents” (Hoffmann-La Roche Inc., priority 1991, dated 1993)
Like-named read-outs stand apart in the source and are kept apart here.

Columns and labels:
Acute toxicity = conditions: in vivo
Chs 2 = biological target: T1, Chs 2 (Saccharomyces cerevisiae, UniProt P14180); assay: Inhibitory activity against Chs 2 (chitin formation from [14C]-UDP-N-acetylglucosamine in permeabilized overproducer cells); assay type: biochemical
T1 construct: digitonin-permeabilized, trypsin-treated cells
Protocol: (§1) Inhibitory activity of Xanthofulvin against Chs 1 and Chs 2 from Saccharomyces cerevisiae was measured respectively.
(§2) The overproducer employed for Chs 1 was Saccharomyces cerevisiae (ura3) harbouring plasmid (CHSl, URA3). The cells were permeabilized with 0.5% digitonin for 15 min at 30° C., followed by treatment with trypsin at the final concentration of 100 μg/ml for 15 min at 30° C. After addition of trypsin inhibitor from soybean, 50 μl of 2.5×10^7 cells/ml was incubated for 1 hr at 30° C. with 40 μl of assay solution containing 50 mM MES pH 6.5, 5 mM Mg(OAc)2, 32 mM N-acetylglucosamine and 0.1 mM [^14 C]-UDP-N-acetylglucosamine, and 10 μl of sample solution. Reaction was terminated with addition of TCA and cells are collected on the filter and washed with 70% aqueous ethanol containing 0.3M acetic acid. Radioactivity of cells is counted with a liquid scientillation counter. Amount of chitin formed was determined on the basis of radioactivity incorporated into the cells (S. J. Silverman, A. Sburlati, M. J. Slater and E. Cabib. Proc. Natl. Acad. Sci. USA, 85, 4735-4739 (1988)).
Overproducer for Chs 2 was a Saccharomyces cerevisiae strain of disrupted Chs 1 gene (chs1:: URA3, leu2 ) with plasmid (CHS2, LEU2). Assay method was the same as the one for Chs 1 described above except for assay solution. Assay solution for Chs 2 contained 30 mM Tris (pH 7.5), 2.5 mM Co(OAc)2, 32 mM N-acetylglucosamine and 0.1 mM [^14 C]-UDP-N-acetylglucosamine (See: Silverman et al. supra).

Chs 1 = biological target: T2, Chs 1 (Saccharomyces cerevisiae, UniProt P08004); assay: Inhibitory activity against Chs 1 (chitin formation from [14C]-UDP-N-acetylglucosamine in permeabilized overproducer cells); assay type: biochemical
T2 sequence (P08004 1-1131): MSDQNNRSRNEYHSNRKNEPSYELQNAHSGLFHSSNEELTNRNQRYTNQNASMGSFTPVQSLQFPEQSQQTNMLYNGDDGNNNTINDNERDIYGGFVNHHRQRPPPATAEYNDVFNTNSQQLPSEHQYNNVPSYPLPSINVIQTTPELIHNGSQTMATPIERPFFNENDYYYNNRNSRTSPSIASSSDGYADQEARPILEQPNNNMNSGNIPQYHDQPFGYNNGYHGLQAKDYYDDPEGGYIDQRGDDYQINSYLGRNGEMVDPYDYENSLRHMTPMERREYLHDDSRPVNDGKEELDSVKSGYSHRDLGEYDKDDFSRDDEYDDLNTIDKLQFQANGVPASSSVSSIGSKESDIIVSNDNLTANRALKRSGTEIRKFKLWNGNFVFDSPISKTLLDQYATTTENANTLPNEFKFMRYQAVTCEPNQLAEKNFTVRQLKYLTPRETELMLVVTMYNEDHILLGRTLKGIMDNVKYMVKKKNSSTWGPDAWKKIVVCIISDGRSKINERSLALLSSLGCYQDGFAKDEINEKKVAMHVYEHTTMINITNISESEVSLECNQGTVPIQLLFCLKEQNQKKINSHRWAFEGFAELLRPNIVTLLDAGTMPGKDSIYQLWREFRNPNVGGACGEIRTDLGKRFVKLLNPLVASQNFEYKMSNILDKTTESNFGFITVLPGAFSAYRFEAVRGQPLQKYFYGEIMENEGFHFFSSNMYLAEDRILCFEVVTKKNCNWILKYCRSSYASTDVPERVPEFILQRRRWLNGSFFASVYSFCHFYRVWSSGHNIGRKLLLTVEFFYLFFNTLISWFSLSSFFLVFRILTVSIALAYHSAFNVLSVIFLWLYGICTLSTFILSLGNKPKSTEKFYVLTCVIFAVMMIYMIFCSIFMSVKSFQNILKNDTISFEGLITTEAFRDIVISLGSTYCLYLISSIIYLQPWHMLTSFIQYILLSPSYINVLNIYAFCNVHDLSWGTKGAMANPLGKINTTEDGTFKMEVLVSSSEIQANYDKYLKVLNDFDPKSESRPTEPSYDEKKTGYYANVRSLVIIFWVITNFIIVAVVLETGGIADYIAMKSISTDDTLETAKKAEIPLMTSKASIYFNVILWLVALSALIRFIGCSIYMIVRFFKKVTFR
Protocol: as §1, §2

[1] = Solubility (physico-chemical properties); assay type: physicochemical
Source text: The physico-chemical properties of Xanthofulvin obtained as described in the Example given hereinbelow are as follows: […]

[2] = biological target: chitin synthase 1 (Chs 1) (Saccharomyces cerevisiae, UniProt P08004); conditions: literature, E. Cabib 1991; cited from earlier work

T1 sequence (P14180 whole entry): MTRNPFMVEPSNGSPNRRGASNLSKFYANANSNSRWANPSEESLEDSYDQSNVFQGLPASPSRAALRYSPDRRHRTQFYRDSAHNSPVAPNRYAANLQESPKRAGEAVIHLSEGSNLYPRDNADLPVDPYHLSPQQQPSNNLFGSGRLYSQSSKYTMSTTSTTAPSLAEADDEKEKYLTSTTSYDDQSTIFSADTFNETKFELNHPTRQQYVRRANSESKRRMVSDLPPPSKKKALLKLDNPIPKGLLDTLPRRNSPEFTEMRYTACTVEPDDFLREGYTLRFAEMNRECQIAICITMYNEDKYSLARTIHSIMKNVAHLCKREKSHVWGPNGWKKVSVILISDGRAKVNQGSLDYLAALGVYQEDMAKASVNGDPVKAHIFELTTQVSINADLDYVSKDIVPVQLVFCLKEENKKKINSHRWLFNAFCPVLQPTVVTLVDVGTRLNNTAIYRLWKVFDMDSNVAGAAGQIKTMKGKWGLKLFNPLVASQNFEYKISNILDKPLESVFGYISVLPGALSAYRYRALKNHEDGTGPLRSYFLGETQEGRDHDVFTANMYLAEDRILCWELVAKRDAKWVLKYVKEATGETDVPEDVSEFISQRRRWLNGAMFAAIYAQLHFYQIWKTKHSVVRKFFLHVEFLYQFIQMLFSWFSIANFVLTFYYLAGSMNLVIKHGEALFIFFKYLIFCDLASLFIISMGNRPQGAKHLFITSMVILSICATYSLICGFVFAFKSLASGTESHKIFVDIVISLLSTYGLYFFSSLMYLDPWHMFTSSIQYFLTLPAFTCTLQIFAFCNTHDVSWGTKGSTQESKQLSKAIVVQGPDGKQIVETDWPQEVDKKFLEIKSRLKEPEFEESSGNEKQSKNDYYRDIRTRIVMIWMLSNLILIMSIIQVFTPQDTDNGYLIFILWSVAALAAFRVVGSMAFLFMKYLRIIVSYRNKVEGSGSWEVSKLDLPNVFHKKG

Row | Structure (SMILES) | Acute toxicity (Acute toxicity) | IC50 (Chs 2; Chs 2 overproducer, Tris pH 7.5, Co(OAc)2, read-out: IC50 Chs 2) | Chs 2 inhibiting activity (in words) (Chs 2; summary of Table 1) | IC50 (Chs 1; Chs 1 overproducer, MES pH 6.5, Mg(OAc)2, 1 hr at 30° C., read-out: IC50 Chs 1) | Solubility ([1]; in DMSO) | Solubility ([1]; in H2O) | Solubility ([1]; in MeOH) | Solubility ([1]; in n-hexane) | Inhibition of chitin synthase 1 versus Chs 2 (in words) [2] | IC50 (Chs 2) | IC50 (Chs 1)
1 | CC(=O)c1c(C)c(/C(O)=C2\COc3cc(O)c(O)c(C(=O)O)c3C2=O)cc2c(=O)c3c(C(=O)O)c(O)c(O)cc3oc12 [Xanthofulvin] | not observed | 2200 nM | high Chs 2 inhibiting activity | > 200000 nM | Soluble | Slightly soluble | Soluble | Insoluble | – | – | –
2 | C[C@@H]([C@H](N)C(=O)N[C@H](C(=O)O)[C@H]1OC(n2cc(C=O)nc2O)[C@H](O)[C@@H]1O)[C@H](O)c1ccc(O)cn1 (stereo partly drawn) [nikkomycin X] | – | – | – | – | – | – | – | – | inhibit chitin synthase 1 (Chs 1) rather than Chs 2 | – | –
3 | NC(=O)OC[C@H](O)[C@@H](O)[C@H](N)C(=O)N[C@H](C(=O)O)[C@H]1O[C@@H](n2cc(C(=O)O)c(=O)[nH]c2=O)[C@H](O)[C@@H]1O [polyoxin D, reference compound] | – | – | – | – | – | – | – | – | inhibit chitin synthase 1 (Chs 1) rather than Chs 2 | 10300 nM | 260 nM
